Measured values taken from PMC6273168, “Synthesis and Biological Evaluation of Novel 4-Morpholino-7,8-dihydro-5H-thiopyrano[4,3-d]pyrimidine Derivatives Bearing Phenylpyridine/ Phenylpyrimidine-Carboxamides” (Molecules, 2016).

Experiments:
[1] = tested on: A549 (human lung cancer) cell line; experiment: MTT cell proliferation (cytotoxicity) assay, A549; type: cell-based; conditions: Homo sapiens, A549, 72 h, average of two separate determinations
Experimental: (§1) Taking GDC-0941 as reference compound, the target compounds […], 12a–j, 13a–g and 14a–g ere evaluated for the cytotoxicity against the three cancer cell lines A549, PC-3 and MCF-7 usg 3-(4,5-dimethylthiazolyl-2)-2,5-diphenyltetrazolium bromide (MTT) cell proliferation assays. In addition, one selected compounds 12h was fher evaluated for PI3Kα kinase inhibitory activity. The results, expressed as IC50 values or inhibitory rate, are sumrized in Table 1, Table 2 and Table 3.
(§2) The in vitro cytotoxic activities of all the compounds 11a–11j, 12a–12j, 13a–13g and 14a–14g was evaluated with A549, PC-3 and MCF-7 cell lines by the standard MTT assay, with GDC-0941 as positive control. The cancer cell lines were cultured in minimum essential medium (MEM) supplement with 10% fetal bovine serum (FBS). Approximately 4 × 10^3 cells, suspended in MEM medium, were plated onto each well of a 96-well plate and incubated in 5% CO2 at 37 °C for 24 h. The test compounds at indicated final concentrations were added to the culture medium and the cell cultures were continued for 72 h. Fresh MTT was added to each well at a terminal concentration of […] and incubated with cells at 37 °C for 4 h. The formazan crystals were dissolved in 100 µL DMSO each well, and the absorbency at 492 nm (for absorbance of MTT formazan) and 630 nm (for the reference wavelength) was measured with an ELISA reader. All of the compounds were tested three times in each of the cell lines. The results expressed as inhibition rates or IC50 (half-maximal inhibitory concentration) were the averages of two determinations and calculated by using the Bacus Laboratories Inc. Slide Scanner (Bliss) software (the Bacus Laboratories Inc. Slide Scanner (BLISS) system, Lombard, IL, USA).

[2] = tested on: PC-3 (human prostatic cancer) cell line; experiment: MTT cell proliferation (cytotoxicity) assay, PC-3; type: cell-based; conditions: Homo sapiens, 72 h, average of two separate determinations
Experimental: as §1, §2

[3] = tested on: MCF-7 (human breast cancer) cell line; experiment: MTT cell proliferation (cytotoxicity) assay, MCF-7; type: cell-based; conditions: Homo sapiens, MCF7, 72 h, average of two separate determinations
Experimental: as §1, §2

[4] = biological target: PI3Kα (Homo sapiens, UniProt P42336); experiment: PI3Kα Kinase-Glo Luminescent Kinase Assay; type: biochemical
Sequence of PI3Kα (P42336 whole entry): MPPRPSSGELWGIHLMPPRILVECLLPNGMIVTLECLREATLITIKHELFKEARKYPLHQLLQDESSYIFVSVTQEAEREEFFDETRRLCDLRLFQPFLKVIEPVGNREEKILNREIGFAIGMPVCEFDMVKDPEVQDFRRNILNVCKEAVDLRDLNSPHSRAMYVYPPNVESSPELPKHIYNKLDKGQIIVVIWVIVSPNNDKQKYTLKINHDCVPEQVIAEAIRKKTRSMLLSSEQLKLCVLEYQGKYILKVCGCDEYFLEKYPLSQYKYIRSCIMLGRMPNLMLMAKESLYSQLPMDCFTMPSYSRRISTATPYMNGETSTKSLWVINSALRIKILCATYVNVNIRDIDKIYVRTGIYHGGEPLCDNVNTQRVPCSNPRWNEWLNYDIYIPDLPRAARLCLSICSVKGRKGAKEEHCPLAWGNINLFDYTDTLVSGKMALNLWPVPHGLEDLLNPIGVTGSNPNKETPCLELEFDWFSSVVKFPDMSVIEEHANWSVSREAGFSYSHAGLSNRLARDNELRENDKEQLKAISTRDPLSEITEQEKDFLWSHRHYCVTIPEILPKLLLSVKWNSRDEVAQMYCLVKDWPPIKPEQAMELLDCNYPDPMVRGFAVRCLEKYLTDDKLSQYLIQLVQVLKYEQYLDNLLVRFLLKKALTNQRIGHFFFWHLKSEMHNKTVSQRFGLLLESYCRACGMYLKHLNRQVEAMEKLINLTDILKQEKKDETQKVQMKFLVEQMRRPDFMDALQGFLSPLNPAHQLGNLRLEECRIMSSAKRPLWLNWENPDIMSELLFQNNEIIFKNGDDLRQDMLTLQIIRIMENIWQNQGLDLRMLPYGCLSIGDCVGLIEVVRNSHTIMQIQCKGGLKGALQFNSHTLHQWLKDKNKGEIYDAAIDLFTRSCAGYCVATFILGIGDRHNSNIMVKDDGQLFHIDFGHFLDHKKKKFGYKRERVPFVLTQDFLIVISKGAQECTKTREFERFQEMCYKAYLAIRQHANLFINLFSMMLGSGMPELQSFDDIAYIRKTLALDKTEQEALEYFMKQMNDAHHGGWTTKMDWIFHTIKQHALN
Sequence of PI3Kα (P27986 whole entry partner): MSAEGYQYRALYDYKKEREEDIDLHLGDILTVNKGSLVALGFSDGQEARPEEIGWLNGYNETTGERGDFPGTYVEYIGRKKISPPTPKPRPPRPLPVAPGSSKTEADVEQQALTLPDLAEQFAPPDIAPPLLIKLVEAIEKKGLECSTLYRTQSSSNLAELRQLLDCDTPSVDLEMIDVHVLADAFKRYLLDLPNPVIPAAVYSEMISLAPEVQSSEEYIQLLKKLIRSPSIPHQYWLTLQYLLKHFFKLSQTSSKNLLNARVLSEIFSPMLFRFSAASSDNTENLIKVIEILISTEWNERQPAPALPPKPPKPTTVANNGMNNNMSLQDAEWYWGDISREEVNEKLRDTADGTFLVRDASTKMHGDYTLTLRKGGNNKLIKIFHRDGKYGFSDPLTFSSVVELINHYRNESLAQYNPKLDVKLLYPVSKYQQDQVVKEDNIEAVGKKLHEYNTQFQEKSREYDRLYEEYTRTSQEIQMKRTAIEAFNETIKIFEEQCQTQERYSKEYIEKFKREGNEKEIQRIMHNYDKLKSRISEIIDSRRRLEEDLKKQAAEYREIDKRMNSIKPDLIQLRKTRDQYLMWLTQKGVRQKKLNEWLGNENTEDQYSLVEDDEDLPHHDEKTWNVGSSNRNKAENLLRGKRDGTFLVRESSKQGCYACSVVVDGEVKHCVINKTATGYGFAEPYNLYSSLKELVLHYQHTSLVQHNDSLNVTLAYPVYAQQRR

| Structure (SMILES) | melting point | IC50 ([4]; Kinase-Glo, 1 µM ATP, 60 min, average of two separate determinations) | inhibitory rate against PI3Ka kinase ([4]; at 10 µM, in words) | IC50 ([1]; Table 2) | IC50 ([2]; Table 2) | IC50 ([3]; Table 2) | IC50 ([1]; Table 1) | IC50 ([2]; Table 1) | IC50 ([3]; Table 1) |
| --- | --- | --- | --- | --- | --- | --- | --- | --- | --- |
| Cc1ccc(-c2ccnc(C(=O)Nc3ccc(-c4nc5c(c(N6CCOCC6)n4)CS(=O)(=O)CC5)cc3)c2)cc1 [Compound 12g, N-(4-(4-Morpholino-7,8-dihydro-6,6-dioxide-5H-thiopyrano[4,3-d]pyrimidin-2-yl)phenyl)-4-(4-methylphenyl) pyridinecarboxamide] | 290.2 to 293.1 °C |  |  |  |  |  | 14.51 ± 0.1 µM | 64.71 ± 0.17 µM | 28.9 ± 1.29 µM |
| O=C(Nc1ccc(-c2nc3c(c(N4CCOCC4)n2)CSCC3)cc1)c1cc(-c2ccc(Cl)cc2)ccn1 [Compound 11e, N-(4-(4-Morpholino-7,8-dihydro-5H-thiopyrano[4,3-d]pyrimidin-2-yl)phenyl)-4-(4-chlorophenyl)pyridine amide] | 235.3 to 236.2 °C |  |  |  |  |  | 19.3 ± 0.86 µM | 23.2 ± 0.76 µM | 20.9 ± 1.02 µM |
| CCc1ccc(-c2ccnc(C(=O)Nc3ccc(-c4nc5c(c(N6CCOCC6)n4)CS(=O)(=O)CC5)cc3)c2)cc1 [Compound 12h, N-(4-(4-Morpholino-7,8-dihydro-6,6-dioxide-5H-thiopyrano[4,3-d]pyrimidin-2-yl)phenyl)-4-(4-ethylphenyl) picolinamide] | 276.8 to 279.1 °C | 7.39 ± 0.194 µM | moderate |  |  |  | 8.37 ± 0.1 µM | 11.34 ± 0.11 µM | 9.26 ± 0.82 µM |

More lines, main results first:

| melting point | IC50 ([4]; Kinase-Glo, 1 µM ATP, 60 min, average of two separate determinations) | inhibitory rate against PI3Ka kinase ([4]; at 10 µM, in words) | Structure (SMILES) | IC50 ([1]; Table 2) | IC50 ([2]; Table 2) | IC50 ([3]; Table 2) | IC50 ([1]; Table 1) | IC50 ([2]; Table 1) | IC50 ([3]; Table 1) |
| --- | --- | --- | --- | --- | --- | --- | --- | --- | --- |
| 294.2 to 296.6 °C |  |  | O=C(Nc1ccc(-c2nc3c(c(N4CCOCC4)n2)CS(=O)(=O)CC3)cc1)c1cc(-c2ccccc2)ncn1 [Compound 14g] | > 100 µM | > 100 µM | > 100 µM |  |  |  |
| > 300 °C |  |  | O=C(Nc1ccc(-c2nc3c(c(N4CCOCC4)n2)CS(=O)(=O)CC3)cc1)c1cc(-c2ccc(Cl)cc2)ncn1 [Compound 14f] | > 100 µM | > 100 µM | > 100 µM |  |  |  |
| 277 to 279.5 °C |  |  | COc1ccc(-c2cc(C(=O)Nc3ccc(-c4nc5c(c(N6CCOCC6)n4)CS(=O)(=O)CC5)cc3)ncn2)cc1 [Compound 14b] | > 100 µM | > 100 µM | 89.6 ± 0.91 µM |  |  |  |
| 237 to 239.3 °C |  |  | O=C(Nc1ccc(-c2nc3c(c(N4CCOCC4)n2)CSCC3)cc1)c1cc(-c2ccc(F)cc2)ncn1 [Compound 13d] | > 100 µM | > 100 µM | > 100 µM |  |  |  |
| 281.8 to 285 °C |  |  | O=C(Nc1ccc(-c2nc3c(c(N4CCOCC4)n2)CSCC3)cc1)c1cc(-c2ccc(Cl)cc2)ncn1 [Compound 13f] | > 100 µM | > 100 µM | > 100 µM |  |  |  |
